In patent publication US20230085307A1, “PYRIDAZINONE COMPOUND AND HERBICIDE” (NISSAN CHEMICAL CORPORATION, priority 2019, published 2023):

How the values were obtained:
[1] = test system: southern crabgrass; test: Test Example 4: herbicidal effect by soil treatment (Table 19, symbol F); type: in vivo, southern crabgrass (Digitaria ciliaris)
Procedure, shortened: (§1)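 Three weeks of greenhouse growth at 25° C. to 30° C. followed a uniform surface spray of water-diluted emulsion at a predetermined herbicide amount. Seeds had been sown beforehand under about 1.5 cm of sterilized diluvial soil. Grading followed criteria set out in an earlier test.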

[2] = test system: green foxtail; test: Test Example 4: herbicidal effect by soil treatment (Table 19, symbol G); type: in vivo, green foxtail (Setaria viridis)
Procedure, shortened: as §1

[3] = test system: barnyard grass; test: Test Example 4: herbicidal effect by soil treatment (Table 19, symbol H); type: in vivo, barnyard grass (Echinochloa crus-galli)
Procedure, shortened: as §1

[4] = test system: wild oat; test: Test Example 4: herbicidal effect by soil treatment (Table 19, symbol I); type: in vivo, wild oat (Avena fatua)
Procedure, shortened: as §1

[5] = test system: blackgrass; test: Test Example 4: herbicidal effect by soil treatment (Table 19, symbol J); type: in vivo, blackgrass (Alopecurus myosuroides)
Procedure, shortened: as §1

[6] = test system: Italian ryegrass; test: Test Example 4: herbicidal effect by soil treatment (Table 19, symbol K); type: in vivo, Italian ryegrass (Lolium multiflorum)
Procedure, shortened: as §1

[7] = test system: windgrass; test: Test Example 4: herbicidal effect by soil treatment (Table 19, symbol L); type: in vivo, windgrass (Apera spica-venti)
Procedure, shortened: as §1

[8] = test system: velvetleaf; test: Test Example 4: herbicidal effect by soil treatment (Table 19, symbol M); type: in vivo, velvetleaf (Abutilon theophrasti)
Procedure, shortened: as §1

[9] = test system: redroot pigweed; test: Test Example 4: herbicidal effect by soil treatment (Table 19, symbol N); type: in vivo, redroot pigweed (Amaranthus retroflexus)
Procedure, shortened: as §1

[10] = test system: lambsquarters; test: Test Example 4: herbicidal effect by soil treatment (Table 19, symbol O); type: in vivo, lambsquarters (Chenopodium album)
Procedure, shortened: as §1

[11] = test system: chickweed; test: Test Example 4: herbicidal effect by soil treatment (Table 19, symbol P); type: in vivo, common chickweed (Stellaria media)
Procedure, shortened: as §1

[12] = test system: persian speedwell; test: Test Example 4: herbicidal effect by soil treatment (Table 19, symbol R); type: in vivo, Persian speedwell (Veronica persica)
Procedure, shortened: as §1

[13] = test system: southern crabgrass; test: Test Example 5: herbicidal effect by foliage application, plastic box (Table 20, symbol F); type: in vivo, southern crabgrass (Digitaria ciliaris); settings: foliage application, three weeks after application
Procedure, shortened: (§2)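 Plants sown in sterilized diluvial soil and grown 14 days in a greenhouse at 25° C to 30° C, then sprayed on the foliage with the compound's emulsion diluted in water to a predetermined herbicide amount. Injury to weeds and crops scored three weeks after application on a visual rating scale.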

[14] = test system: green foxtail; test: Test Example 5: herbicidal effect by foliage application, plastic box (Table 20, symbol G); type: in vivo, green foxtail (Setaria viridis); settings: foliage application, three weeks after application
Procedure, shortened: as §2

[15] = test system: barnyard grass; test: Test Example 5: herbicidal effect by foliage application, plastic box (Table 20, symbol H); type: in vivo, barnyard grass (Echinochloa crus-galli); settings: foliage application, three weeks after application
Procedure, shortened: as §2

[16] = test system: wild oat; test: Test Example 5: herbicidal effect by foliage application, plastic box (Table 20, symbol I); type: in vivo, wild oat (Avena fatua); settings: foliage application, three weeks after application
Procedure, shortened: as §2

[17] = test system: blackgrass; test: Test Example 5: herbicidal effect by foliage application, plastic box (Table 20, symbol J); type: in vivo, blackgrass (Alopecurus myosuroides); settings: foliage application, three weeks after application
Procedure, shortened: as §2

[18] = test system: Italian ryegrass; test: Test Example 5: herbicidal effect by foliage application, plastic box (Table 20, symbol K); type: in vivo, Italian ryegrass (Lolium multiflorum); settings: foliage application, three weeks after application
Procedure, shortened: as §2

[19] = test system: windgrass; test: Test Example 5: herbicidal effect by foliage application, plastic box (Table 20, symbol L); type: in vivo, windgrass (Apera spica-venti); settings: foliage application, three weeks after application
Procedure, shortened: as §2

[20] = test system: velvetleaf; test: Test Example 5: herbicidal effect by foliage application, plastic box (Table 20, symbol M); type: in vivo, velvetleaf (Abutilon theophrasti); settings: foliage application, three weeks after application
Procedure, shortened: as §2

[21] = test system: redroot pigweed; test: Test Example 5: herbicidal effect by foliage application, plastic box (Table 20, symbol N); type: in vivo, redroot pigweed (Amaranthus retroflexus); settings: foliage application, three weeks after application
Procedure, shortened: as §2

[22] = test system: lambsquarters; test: Test Example 5: herbicidal effect by foliage application, plastic box (Table 20, symbol O); type: in vivo, lambsquarters (Chenopodium album); settings: foliage application, three weeks after application
Procedure, shortened: as §2

[23] = test system: chickweed; test: Test Example 5: herbicidal effect by foliage application, plastic box (Table 20, symbol P); type: in vivo, common chickweed (Stellaria media); settings: foliage application, three weeks after application
Procedure, shortened: as §2

[24] = test system: persian speedwell; test: Test Example 5: herbicidal effect by foliage application, plastic box (Table 20, symbol R); type: in vivo, Persian speedwell (Veronica persica); settings: foliage application, three weeks after application
Procedure, shortened: as §2

In the case of `CCCC(=O)Oc1c(OC)nn(C)c(=O)c1-c1c(-c2ccc(OC)cc2OC)sc2ccccc12` [1-181], the “F: southern crabgrass, herbicidal effect rating” value ([1]; AAH 320 g/ha) is reported as 0 (Herbicidal rate of 5% or less (almost no effect)), the “G: green foxtail, herbicidal effect rating” value ([2]; AAH 320 g/ha) is reported as 0 (Herbicidal rate of 5% or less (almost no effect)) and the “H: barnyard grass, herbicidal effect rating” value ([3]; AAH 320 g/ha) is reported as 0 (Herbicidal rate of 5% or less (almost no effect)). The “I: wild oat, herbicidal effect rating” value ([4]; AAH 320 g/ha) was 0 (Herbicidal rate of 5% or less (almost no effect)), the “J: blackgrass, herbicidal effect rating” value ([5]; AAH 320 g/ha) was 0 (Herbicidal rate of 5% or less (almost no effect)) and the “K: Italian ryegrass, herbicidal effect rating” value ([6]; AAH 320 g/ha) was 0 (Herbicidal rate of 5% or less (almost no effect)). For the same compound, the “L: windgrass, herbicidal effect rating” value ([7]; AAH 320 g/ha) was 0 (Herbicidal rate of 5% or less (almost no effect)), the “M: velvetleaf, herbicidal effect rating” value ([8]; AAH 320 g/ha) was 0 (Herbicidal rate of 5% or less (almost no effect)) and the “N: redroot pigweed, herbicidal effect rating” value ([9]; AAH 320 g/ha) was 0 (Herbicidal rate of 5% or less (almost no effect)). For the same compound, the “O: lambsquarters, herbicidal effect rating” value ([10]; AAH 320 g/ha) was 0 (Herbicidal rate of 5% or less (almost no effect)), the “P: chickweed, herbicidal effect rating” value ([11]; AAH 320 g/ha) was 1 (Herbicidal rate of 5% or more and less than 20%) and the “R: persian speedwell, herbicidal effect rating” value ([12]; AAH 320 g/ha) was 1 (Herbicidal rate of 5% or more and less than 20%). For the same compound, the “F: southern crabgrass, herbicidal effect” value ([13]; AAH 320 g/ha) was 0 (Herbicidal rate of 5% or less (almost no effect)), the “G: green foxtail, herbicidal effect” value ([14]; AAH 320 g/ha) was 0 (Herbicidal rate of 5% or less (almost no effect)) and the “H: barnyard grass, herbicidal effect” value ([15]; AAH 320 g/ha) was 0 (Herbicidal rate of 5% or less (almost no effect)). The “I: wild oat, herbicidal effect” value ([16]; AAH 320 g/ha) was 0 (Herbicidal rate of 5% or less (almost no effect)), the “J: blackgrass, herbicidal effect” value ([17]; AAH 320 g/ha) was 0 (Herbicidal rate of 5% or less (almost no effect)) and the “K: Italian ryegrass, herbicidal effect” value ([18]; AAH 320 g/ha) was 0 (Herbicidal rate of 5% or less (almost no effect)). The “L: windgrass, herbicidal effect” value ([19]; AAH 320 g/ha) was 0 (Herbicidal rate of 5% or less (almost no effect)), the “M: velvetleaf, herbicidal effect” value ([20]; AAH 320 g/ha) was 0 (Herbicidal rate of 5% or less (almost no effect)) and the “N: redroot pigweed, herbicidal effect” value ([21]; AAH 320 g/ha) was 0 (Herbicidal rate of 5% or less (almost no effect)). The “O: lambsquarters, herbicidal effect” value ([22]; AAH 320 g/ha) was 1 (Herbicidal rate of 5% or more and less than 20%), the “P: chickweed, herbicidal effect” value ([23]; AAH 320 g/ha) was 4 (Herbicidal rate of 70% or more and less than 90%) and the “R: persian speedwell, herbicidal effect” value ([24]; AAH 320 g/ha) was 1 (Herbicidal rate of 5% or more and less than 20%).
`COc1nn(C)c(=O)c(-c2c(-c3cc(F)c(F)c(F)c3)sc3ccccc23)c1O` [1-186] was tested, and the “F: southern crabgrass, herbicidal effect rating” value ([1]; AAH 283 g/ha) was 0 (Herbicidal rate of 5% or less (almost no effect)), the “G: green foxtail, herbicidal effect rating” value ([2]; AAH 283 g/ha) was 0 (Herbicidal rate of 5% or less (almost no effect)) and the “H: barnyard grass, herbicidal effect rating” value ([3]; AAH 283 g/ha) was 0 (Herbicidal rate of 5% or less (almost no effect)). For the same compound, the “I: wild oat, herbicidal effect rating” value ([4]; AAH 283 g/ha) was 0 (Herbicidal rate of 5% or less (almost no effect)), the “J: blackgrass, herbicidal effect rating” value ([5]; AAH 283 g/ha) was 0 (Herbicidal rate of 5% or less (almost no effect)) and the “K: Italian ryegrass, herbicidal effect rating” value ([6]; AAH 283 g/ha) was 0 (Herbicidal rate of 5% or less (almost no effect)). For the same compound, the “L: windgrass, herbicidal effect rating” value ([7]; AAH 283 g/ha) was 0 (Herbicidal rate of 5% or less (almost no effect)), the “M: velvetleaf, herbicidal effect rating” value ([8]; AAH 283 g/ha) was 0 (Herbicidal rate of 5% or less (almost no effect)) and the “N: redroot pigweed, herbicidal effect rating” value ([9]; AAH 283 g/ha) was 2 (Herbicidal rate of 20% or more and less than 40%). For the same compound, the “O: lambsquarters, herbicidal effect rating” value ([10]; AAH 283 g/ha) was 0 (Herbicidal rate of 5% or less (almost no effect)), the “P: chickweed, herbicidal effect rating” value ([11]; AAH 283 g/ha) was 5 (Herbicidal rate of 90% or more (almost completely withered)) and the “R: persian speedwell, herbicidal effect rating” value ([12]; AAH 283 g/ha) was 4 (Herbicidal rate of 70% or more and less than 90%). The “F: southern crabgrass, herbicidal effect” value ([13]; AAH 283 g/ha) was 0 (Herbicidal rate of 5% or less (almost no effect)), the “G: green foxtail, herbicidal effect” value ([14]; AAH 283 g/ha) was 0 (Herbicidal rate of 5% or less (almost no effect)) and the “H: barnyard grass, herbicidal effect” value ([15]; AAH 283 g/ha) was 0 (Herbicidal rate of 5% or less (almost no effect)). For the same compound, the “I: wild oat, herbicidal effect” value ([16]; AAH 283 g/ha) was 0 (Herbicidal rate of 5% or less (almost no effect)), the “J: blackgrass, herbicidal effect” value ([17]; AAH 283 g/ha) was 0 (Herbicidal rate of 5% or less (almost no effect)) and the “K: Italian ryegrass, herbicidal effect” value ([18]; AAH 283 g/ha) was 0 (Herbicidal rate of 5% or less (almost no effect)). For the same compound, the “L: windgrass, herbicidal effect” value ([19]; AAH 283 g/ha) was 0 (Herbicidal rate of 5% or less (almost no effect)), the “M: velvetleaf, herbicidal effect” value ([20]; AAH 283 g/ha) was 3 (Herbicidal rate of 40% or more and less than 70%) and the “N: redroot pigweed, herbicidal effect” value ([21]; AAH 283 g/ha) was 4 (Herbicidal rate of 70% or more and less than 90%). The “O: lambsquarters, herbicidal effect” value ([22]; AAH 283 g/ha) was 2 (Herbicidal rate of 20% or more and less than 40%), the “P: chickweed, herbicidal effect” value ([23]; AAH 283 g/ha) was 5 (Herbicidal rate of 90% or more (almost completely withered)) and the “R: persian speedwell, herbicidal effect” value ([24]; AAH 283 g/ha) was 5 (Herbicidal rate of 90% or more (almost completely withered)).
